Assays:
[1] = system: focal cerebral ischemia induced by MCAO (middle cerebral artery occlusion) in rats; assay: focal cerebral ischemia induced by MCAO (middle cerebral artery occlusion) in rats; assay type: in vivo, SD rat; settings: induced by ADP-2Na, final concentration of ADP, turbidimetry; 50mg/kg gavage once daily for 5 days; X±SD
Experimental: Male SD rats, weighing 240~290g, grouping and dosages were as above. Additionally, a positive control group, i.e., nimodipine 50mg/kg group was set up. Animals of each group were gavage once daily for consecutive 5 days in predetermined dosage. At 30 minute after the last administration, the animals were anesthetized with 12% chloral hydrate in 350 mg/kg via intraperitoneal injection. The animals were kept left lateral position and the skin was cut along the middle point between right ear and eye line. Temporalis was separated and cheekbone was sheared. A holl was drilled with a dental drill in front of zygomatic root and MCA was exposed. […]
The animals were scored on neurological functions at 6 hour and 24 hour after modeling, according to behavior such as movement. […]
24 hour after modeling and after neurological scoring, blood was taken via carotid artery intubation in duplicate. For one sample, serum was separated and the activity of AST and LDH was determined according to the method of the kit; for another sample, it was treated with 3.8% sodium citrate in 1:9 for the purpose of anticoagulation, centrifuged at 1000rpm for 5 minutes to prepare platelet rich plasma (PRP), and centrifuged at 3500rpm for 10 minutes to prepare platelet poor plasma (PPP). […]

[2] = comparative study on solubilities (China Pharmacopeia 2005 terms); assay type: physicochemical; settings: terms per China Pharmacopeia 2005
[3] = background statement; cited from earlier work

Q: Which “rate of platelet aggregation” value [1] does the source give for `COCCOC(=O)C1=C(C)NC(C)=C(C(=O)OC(C)C)C1c1cccc([N+](=O)[O-])c1` (stereo not shown) [nimodipine, reference compound] here?
A: 54.15±7.76%

Q: For `O=C(O)[C@H]1O[C@@H](Oc2cc3oc(-c4ccc(O)cc4)cc(=O)c3c(O)c2O)[C@H](O)[C@@H](O)[C@@H]1O` [scutellarin], which “solubility in 0.01NNaOH” value ([2]; 0.01NNaOH) is on record?
A: soluble

Q: And the “solubility in 95%EtOH” value ([2]; 95%EtOH)?
A: slightly soluble

Q: What about the “solubility in H2O” value ([2]; H2O) of the same molecule?
A: very slightly soluble

Q: And the “solubility in MeOH” value ([2]; MeOH)?
A: slightly soluble

Q: And the “solubility in n-BuOH” value ([2]; n-BuOH)?
A: slightly soluble

Q: And the solubility in water [3]?
A: sparingly soluble

Source: EP2292242B1, “A SCUTELLARIN DERIVATIVE, THE PREPARING PROCESS, THE PHARMACEUTICAL COMPOSITION AND THE USE THEREOF” (Kunming Pharmaceutical Corp., priority 2008, dated 2009)
